In US8124637B2, “Anthra [1, 2-d]imidazole-6,11-dione derivatives, preparation method and application thereof” (National Defense Medical Center, priority 2010, dated 2012):

Experiments:
Assay type in all cases: cell-based, human
[1] = NCI 60-cell drug screen, one dose; settings: Renal Cancer A489, 1.00E−5 Molar
Method: (§1) In brief, cellular protein levels were determined after 48 hours of drug exposure by sulforhodamine B colorimetry.
(§2) The screening system in United State National Cancer Institute (NCI) consists of 60 kinds of different human cancer cells, which can be used to assay the growth-inhibiting ability or cell toxicity of a compound against various cancer and tumor at a certain concentration. The NCI had selected 6 compounds synthesized above, and performed cell toxicity assay against 60 kinds of cancer cell strains (Table 2) (DTP Human Tumor Cell Line Screen), in which each compound was assayed at a certain concentration to observe its inhibition ability or cell toxicity against various kinds of cancer and tumor.

786-0 = test: NCI 60-cell drug screen, one dose; settings: Renal Cancer 786-0, 1.00E−5 Molar
Method: as §1, §2

ACHN = test: NCI 60-cell drug screen, one dose; settings: Renal Cancer ACHN, 1.00E−5 Molar
Method: as §1, §2

BT-549 = test: NCI 60-cell drug screen, one dose; settings: Breast Cancer BT-549, 1.00E−5 Molar
Method: as §1, §2

DU145 = test: NCI 60-cell drug screen, one dose; settings: Prostate Cancer DU145, 1.00E−5 Molar
Method: as §1, §2

EKVX = test: NCI 60-cell drug screen, one dose; settings: Non-Small Cell Lung Cancer EKVX, 1.00E−5 Molar
Method: as §1, §2

HOP-62 = test: NCI 60-cell drug screen, one dose; settings: Non-Small Cell Lung Cancer HOP-62, 1.00E−5 Molar
Method: as §1, §2

HOP-92 = test: NCI 60-cell drug screen, one dose; settings: Non-Small Cell Lung Cancer HOP-92, 1.00E−5 Molar
Method: as §1, §2

HS 578-T = test: NCI 60-cell drug screen, one dose; settings: Breast Cancer HS 578-T, 1.00E−5 Molar
Method: as §1, §2

HT29 = test: NCI 60-cell drug screen, one dose; settings: Colon Cancer HT29, 1.00E−5 Molar
Method: as §1, §2

IGROV1 = test: NCI 60-cell drug screen, one dose; settings: Ovarian Cancer IGROV1, 1.00E−5 Molar
Method: as §1, §2

KM12 = test: NCI 60-cell drug screen, one dose; settings: Colon Cancer KM12, 1.00E−5 Molar
Method: as §1, §2

M14 = test: NCI 60-cell drug screen, one dose; settings: Melanoma M14, 1.00E−5 Molar
Method: as §1, §2

MCF7 = test: NCI 60-cell drug screen, one dose; settings: Breast Cancer MCF7, 1.00E−5 Molar
Method: as §1, §2

MDA-MB-231/ATCC = test: NCI 60-cell drug screen, one dose; settings: Breast Cancer MDA-MB-231/ATCC, 1.00E−5 Molar
Method: as §1, §2

MDA-MB-435 = test: NCI 60-cell drug screen, one dose; settings: Melanoma MDA-MB-435, 1.00E−5 Molar
Method: as §1, §2

MDA-MB-468 = test: NCI 60-cell drug screen, one dose; settings: Breast Cancer MDA-MB-468, 1.00E−5 Molar
Method: as §1, §2

NCI-H23 = test: NCI 60-cell drug screen, one dose; settings: Non-Small Cell Lung Cancer NCI-H23, 1.00E−5 Molar
Method: as §1, §2

NCI-H322M = test: NCI 60-cell drug screen, one dose; settings: Non-Small Cell Lung Cancer NCI-H322M, 1.00E−5 Molar
Method: as §1, §2

NCI-H460 = test: NCI 60-cell drug screen, one dose; settings: Non-Small Cell Lung Cancer NCI-H460, 1.00E−5 Molar
Method: as §1, §2

NCI-H522 = test: NCI 60-cell drug screen, one dose; settings: Non-Small Cell Lung Cancer NCI-H522, 1.00E−5 Molar
Method: as §1, §2

OVCAR-4 = test: NCI 60-cell drug screen, one dose; settings: Ovarian Cancer OVCAR-4, 1.00E−5 Molar
Method: as §1, §2

OVCAR-5 = test: NCI 60-cell drug screen, one dose; settings: Ovarian Cancer OVCAR-5, 1.00E−5 Molar
Method: as §1, §2

SF-268 = test: NCI 60-cell drug screen, one dose; settings: CNS Cancer SF-268, 1.00E−5 Molar
Method: as §1, §2

SF-539 = test: NCI 60-cell drug screen, one dose; settings: CNS Cancer SF-539, 1.00E−5 Molar
Method: as §1, §2

SK-MEL-28 = test: NCI 60-cell drug screen, one dose; settings: Melanoma SK-MEL-28, 1.00E−5 Molar
Method: as §1, §2

SK-MEL-5 = test: NCI 60-cell drug screen, one dose; settings: Melanoma SK-MEL-5, 1.00E−5 Molar
Method: as §1, §2

SK-OV-3 = test: NCI 60-cell drug screen, one dose; settings: Ovarian Cancer SK-OV-3, 1.00E−5 Molar
Method: as §1, §2

SN12C = test: NCI 60-cell drug screen, one dose; settings: Renal Cancer SN12C, 1.00E−5 Molar
Method: as §1, §2

SNB-19 = test: NCI 60-cell drug screen, one dose; settings: CNS Cancer SNB-19, 1.00E−5 Molar
Method: as §1, §2

SNB-75 = test: NCI 60-cell drug screen, one dose; settings: CNS Cancer SNB-75, 1.00E−5 Molar
Method: as §1, §2

SW-620 = test: NCI 60-cell drug screen, one dose; settings: Colon Cancer SW-620, 1.00E−5 Molar
Method: as §1, §2

T-47D = test: NCI 60-cell drug screen, one dose; settings: Breast Cancer T-47D, 1.00E−5 Molar
Method: as §1, §2

TK-10 = test: NCI 60-cell drug screen, one dose; settings: Renal Cancer TK-10, 1.00E−5 Molar
Method: as §1, §2

UACC-62 = test: NCI 60-cell drug screen, one dose; settings: Melanoma UACC-62, 1.00E−5 Molar
Method: as §1, §2

UO-31 = test: NCI 60-cell drug screen, one dose; settings: Renal Cancer UO-31, 1.00E−5 Molar
Method: as §1, §2

SMILES	Growth Percent [1] [%]	Growth Percent (786-0) [%]	Growth Percent (ACHN) [%]	Growth Percent (BT-549) [%]	Growth Percent (DU145) [%]	Growth Percent (EKVX) [%]	Growth Percent (HOP-62) [%]	Growth Percent (HOP-92) [%]	Growth Percent (HS 578-T) [%]	Growth Percent (HT29) [%]	Growth Percent (IGROV1) [%]	Growth Percent (KM12) [%]	Growth Percent (M14) [%]	Growth Percent (MCF7) [%]	Growth Percent (MDA-MB-231/ATCC) [%]	Growth Percent (MDA-MB-435) [%]	Growth Percent (MDA-MB-468) [%]	Growth Percent (NCI-H23) [%]	Growth Percent (NCI-H322M) [%]	Growth Percent (NCI-H460) [%]	also measured
CCN(CC)Cc1nc2ccc3c(c2[nH]1)C(=O)c1ccccc1C3=O [CL04, 2-((diethylamino)methyl)-1H-anthra[1,2-d]imidazole-6,11-dione]	49.50	64.88	48.41	105.50	73.54	73.22	85.27	56.11	70.37	56.02	13.61	76.89	97.86	51.13	75.52	88.53	54.46	75.96	90.06	55.50	Growth Percent (NCI-H522): 73.14%; Growth Percent (OVCAR-4): 65.69%; Growth Percent (OVCAR-5): 96.50%; Growth Percent (SF-268): 74.04%; Growth Percent (SF-539): 85.26%; Growth Percent (SK-MEL-28): 92.41%; Growth Percent (SK-MEL-5): 68.20%; Growth Percent (SK-OV-3): 86.81%; Growth Percent (SN12C): 69.04%; Growth Percent (SNB-19): 75.06%; Growth Percent (SNB-75): 82.03%; Growth Percent (SW-620): 60.46%; Growth Percent (T-47D): 83.55%; Growth Percent (TK-10): 98.12%; Growth Percent (UACC-62): 68.47%; Growth Percent (UO-31): 27.21%
CN(CCc1ccccn1)Cc1nc2ccc3c(c2[nH]1)C(=O)c1ccccc1C3=O [CL07, 2-((N-methyl-2-(pyridin-2-yl)ethanamino)methyl)-1H-anthra[1,2-d]imidazole-6,11-dione]	69.60	89.74	80.20	114.38	83.70	82.24	105.37	101.41	108.96	84.18	54.26	89.03	106.97	69.06	88.98	93.53	77.09	90.81	102.29	90.27	Growth Percent (NCI-H522): 86.39%; Growth Percent (OVCAR-4): 80.99%; Growth Percent (OVCAR-5): 109.14%; Growth Percent (SF-268): 85.87%; Growth Percent (SF-539): 102.32%; Growth Percent (SK-MEL-28): 97.01%; Growth Percent (SK-MEL-5): 75.48%; Growth Percent (SK-OV-3): 106.7%; Growth Percent (SN12C): 91.19%; Growth Percent (SNB-19): 87.77%; Growth Percent (SNB-75): 81.62%; Growth Percent (SW-620): 100.52%; Growth Percent (T-47D): 68.45%; Growth Percent (TK-10): 130.74%; Growth Percent (UACC-62): 89.67%; Growth Percent (UO-31): 49.49%
O=C1c2ccccc2C(=O)c2c1ccc1nc(CN3CCCCC3)[nH]c21 [CL16, 2-((piperidin-1-yl)methyl)-1H-anthra[1,2-d]imidazole-6,11-dione]	61.84	62.88	47.11	109.47	74.90	77.14	92.69	80.97	50.98	61.38	54.22	77.40	100.82	42.74	77.93	102.02	58.32	81.32	92.47	64.61	Growth Percent (NCI-H522): 84.14%; Growth Percent (OVCAR-4): 65.27%; Growth Percent (OVCAR-5): 101.70%; Growth Percent (SF-268): 58.46%; Growth Percent (SF-539): 82.47%; Growth Percent (SK-MEL-28): 107.08%; Growth Percent (SK-MEL-5): 65.73%; Growth Percent (SK-OV-3): 92.54%; Growth Percent (SN12C): 96.96%; Growth Percent (SNB-19): 76.33%; Growth Percent (SNB-75): 86.42%; Growth Percent (SW-620): 71.72%; Growth Percent (T-47D): 69.11%; Growth Percent (TK-10): 115.68%; Growth Percent (UACC-62): 74.61%; Growth Percent (UO-31): 42.93%
